Laboratory results taken from patent US10577332B2, “Tetrazole derivatives” (Hoffmann-La Roche Inc., priority 2015, dated 2020).

Tests used:
[1] = biological target: T1, human EAAT3 (Homo sapiens, UniProt P43005); assay: FLIPR Membrane Potential (FMP) assay; assay type: cell-based; conditions: HEK-293 cells stably expressing human EAAT3; antagonist applied 15 min before L-glutamate at EC80; Kb by Cheng-Prusoff from IC50
T1 construct: expressed in transfected cells
T1 sequence (P43005 1-524): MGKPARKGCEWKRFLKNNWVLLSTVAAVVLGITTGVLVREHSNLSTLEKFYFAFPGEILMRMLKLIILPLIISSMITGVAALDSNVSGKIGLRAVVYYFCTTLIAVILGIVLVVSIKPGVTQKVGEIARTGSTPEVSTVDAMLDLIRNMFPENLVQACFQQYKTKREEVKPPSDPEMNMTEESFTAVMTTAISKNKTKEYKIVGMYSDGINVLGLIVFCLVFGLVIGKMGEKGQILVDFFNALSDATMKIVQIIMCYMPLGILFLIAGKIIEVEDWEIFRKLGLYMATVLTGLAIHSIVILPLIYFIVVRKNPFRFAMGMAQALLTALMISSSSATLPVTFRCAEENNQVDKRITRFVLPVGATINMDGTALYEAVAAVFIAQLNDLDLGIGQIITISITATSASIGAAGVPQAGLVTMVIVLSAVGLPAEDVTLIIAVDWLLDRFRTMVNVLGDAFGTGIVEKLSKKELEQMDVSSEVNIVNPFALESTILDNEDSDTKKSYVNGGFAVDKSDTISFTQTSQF
Description: The FLIPR Membrane Potential (FMP) Assay
HEK-293 cells stably expressing human EAAT3 were seeded at 55 000 cells/well in growth medium (DMEM glutamate free (Invitrogen 11960-044), 1% Pen Strep (10 ml/l GIBCO BRL No 15140-023), 10% FCS non dialysed heat inactivated, 5 mg/l puromycin) in poly-D-lysine treated 96-well black microtiter plates with clear-bottom. After 24 h, the growth medium was removed and 100 μl/well of Krebs buffer (140 mM NaCl, 4.7 mM KCl, 2.5 mM CaCl2, 1.2 mM MgCl2, 11 mM HEPES, 10 mM D-glucose, pH=7.4) added. The cells were then loaded by adding 100 μl/well FMP assay dye (FLIPR Membrane Potential assay reagent, Molecular Devices). The 96-well plates were then incubated at 37° C. for 1 h. The depolarization of the cells will cause more dye to enter in the cells, where it will bind to intracellular proteins and lipids and cause an increase in the fluorescence signal. Antagonist potency at human EAAT3 was determined by using L-glutamate as agonist at a concentration which gives 80% of the maximum response. The antagonists were applied 15 min before the application of the agonist L-glutamate. The assays were performed at room temperature and measurements done by using a Fluorometric Imaging Plate Reader (FLIPR, Molecular Devices) and filter #2. Responses were measured as peak increase in fluorescence minus basal (i.e. fluorescence without addition of L-glutamate). Kb was determined using the Cheng-Prusoff equation Kb=IC50/[1+(A/EC50)], where IC50 is the concentration of the antagonist producing 50% inhibition, A is the concentration of the agonist against which the IC50 is being determined (at EC80) and EC50 is the concentration of the agonist producing 50% […].

Row | Structure (SMILES) | Kb [1] | melting point
1 | CCC(C)(C)NC(=O)c1cc(-c2ccc(C)cc2)cc(-n2nnnc2C(C)C)c1 [Example 10, N-(2-Methylbutan-2-yl)-3-(4-methylphenyl)-5-(5-propan-2-yltetrazol-1-yl)-benzamide] | 230 nM | 104 °C
2 | Cc1ccc(-c2cc(C(=O)NC(C)(C)CO)cc(-n3nnnc3C(C)C)c2)cc1 [Example 14, N-(1-Hydroxy-2-methylpropan-2-yl)-3-(4-methylphenyl)-5-(5-propan-2-yltetrazol-1-yl)-benzamide] | 650 nM | 75 °C
3 | CC1(NC(=O)c2cc(-c3ccc(F)cc3)cc(-n3nnnc3C(C)(C)C)c2)CCS(=O)(=O)C1 (racemic) [Example 95, (RS)-3-(5-tert-Butyltetrazol-1-yl)-5-(4-fluorophenyl)-N-(3-methyl-, 1-dioxothiolan-3-yl)-benzamide] | 350 nM | 258.5 °C
4 | CCc1nnnn1-c1cc(C(=O)NC(C)(C)C2CC2)cc(-c2ccc(C)cc2)c1 [Example 36, N-(2-Cyclopropylpropan-2-yl)-3-(5-ethyltetrazol-1-yl)-5-(4-methylphenyl)-benzamide] | 350 nM | 59.5 °C
5 | CC(C)(CO)NC(=O)c1cc(-c2ccc(Cl)cc2)cc(-n2nnnc2C(F)(F)F)c1 [Example 76, 3-(4-Chlorophenyl)-N-(1-hydroxy-2-methylpropan-2-yl)-5-[5-(trifluoromethyl)-tetrazol-1-yl]-benzamide] | 300 nM | 89 °C
6 | Cc1nnnn1-c1cc(C(=O)NC(C)(C)C(F)(F)F)cc(-c2ccc(Cl)cc2)c1 [Example 70, 3-(4-Chlorophenyl)-5-(5-methyltetrazol-1-yl)-N-(1,1,1-trifluoro-2-methylpropan-2-yl)-benzamide] | 230 nM | 96 °C
7 | Cc1ccc(-c2cc(C(=O)NC(C)(C)C(F)(F)F)cc(-n3cnnn3)c2)cc1 [Example 13, 3-(4-Methylphenyl)-5-(tetrazol-1-yl)-N-(1,1,1-trifluoro-2-methylpropan-2-yl)-benzamide] | 650 nM | 190.5 °C
8 | Cc1nnnn1-c1cc(C(=O)NC(C)(C)C)cc(-c2ccc(F)cc2)c1 [Example 80, N-tert-Butyl-3-(4-fluorophenyl)-5-(5-methyltetrazol-1-yl)-benzamide] | 180 nM | 80 °C
9 | CC(C)(NC(=O)c1cc(-c2ccc(F)cc2)cc(-n2nnnc2C2CC2)c1)C1CC1 [Example 72, N-(2-Cyclopropylpropan-2-yl)-3-(5-cyclopropyltetrazol-1-yl)-5-(4-fluorophenyl)-benzamide] | 380 nM | 73 °C
10 | CC(C)(C)c1nnnn1-c1cc(C(=O)NC(C)(C)C2CC2)cc(-c2ccc(C(F)(F)F)cc2)c1 [Example 111, 3-(5-tert-Butyltetrazol-1-yl)-N-(2-cyclopropylpropan-2-yl)-5-[4-(trifluoromethyl)-phenyl]-benzamide] | 500 nM | 95.5 °C
11 | CC(C)(C)c1nnnn1-c1cc(C(=O)NC(C)(C)C(F)(F)F)cc(-c2ccc(F)c(F)c2)c1 [Example 122, 3-(5-tert-Butyltetrazol-1-yl)-5-(3,4-difluorophenyl)-N-(1,1,1-trifluoro-2-methylpropan-2-yl)-benzamide] | 360 nM | 221.5 °C
12 | CCc1nnnn1-c1cc(C(=O)NC2(C)CCS(=O)(=O)C2)cc(-c2ccc(C)cc2)c1 (racemic) [Example 34, (RS)-3-(5-Ethyltetrazol-1-yl)-N-(3-methyl-1,1-dioxothiolan-3-yl)-5-(4-methylphenyl)-benzamide] | 270 nM | 122 °C
13 | CC(C)(C)c1nnnn1-c1cc(C(=O)NC(C)(C)C(F)(F)F)cc(-c2ccc(Cl)cc2)c1 [Example 93, 3-(5-tert-Butyltetrazol-1-yl)-5-(4-chlorophenyl)-N-(1,1,1-trifluoro-2-methylpropan-2-yl)-benzamide] | 260 nM | 218.5 °C
14 | Cc1ccc(-c2cc(C(=O)NC(C)(C)C)cc(-n3nnnc3C3CC3)c2)cc1 [Example 29, N-tert-Butyl-3-(5-cyclopropyltetrazol-1-yl)-5-(4-methylphenyl)-benzamide] | 200 nM | 91 °C

Now from value to compound:

Row | Kb [1] | melting point | Structure (SMILES)
15 | 530 nM | 106.5 °C | CC(C)(C)c1nnnn1-c1cc(C(=O)NC(C)(C)C2CC2)cc(-c2ccc(Cl)c(F)c2)c1 [Example 112, 3-(5-tert-Butyltetrazol-1-yl)-5-(4-chloro-3-fluorophenyl)-N-(2-cyclopropylpropan-2-yl)-benzamide]
16 | 310 nM | 78 °C | Cc1ccc(-c2cc(C(=O)NC(C)(C)C3CC3)cc(-n3nnnc3C(C)C)c2)cc1 [Example 20, N-(2-Cyclopropylpropan-2-yl)-3-(4-methylphenyl)-5-(5-propan-2-yltetrazol-1-yl)-benzamide]
17 | 450 nM | 74.5 °C | Cc1ccc(-c2cc(C(=O)NC(C)(C)C3CC3)cc(-n3nnnc3C3CC3)c2)cc1 [Example 35, N-(2-Cyclopropylpropan-2-yl)-3-(5-cyclopropyltetrazol-1-yl)-5-(4-methylphenyl)-benzamide]
18 | 300 nM | 101 °C | CC(C)(C)c1nnnn1-c1cc(C(=O)NC(C)(C)C2CC2)cc(-c2ccc(Cl)cc2)c1 [Example 92, 3-(5-tert-Butyltetrazol-1-yl)-5-(4-chlorophenyl)-N-(2-cyclopropylpropan-2-yl)-benzamide]
19 | 570 nM | 205 °C | CCC(C)(C)NC(=O)c1cc(-c2ccc(F)c(Cl)c2)cc(-n2cnnn2)c1 [Example 40, 3-(3-Chloro-4-fluorophenyl)-N-(2-methylbutan-2-yl)-5-(tetrazol-1-yl)-benzamide]
20 | 290 nM | 117 °C | Cc1nnnn1-c1cc(C(=O)NC2(C)CCS(=O)(=O)C2)cc(-c2ccc(F)cc2)c1 (racemic) [Example 87, (RS)-3-(4-Fluorophenyl)-N-(3-methyl-1,1-dioxothiolan-3-yl)-5-(5-methyltetrazol-1-yl)-benzamide]
21 | 480 nM | 91 °C | CC(C)c1nnnn1-c1cc(C(=O)NC(C)(C)C(F)(F)F)cc(-c2ccc(C(F)(F)F)cc2)c1 [Example 53, 3-(5-Propan-2-yltetrazol-1-yl)-5-[4-(trifluoromethyl)-phenyl]-N-(1,1,1-trifluoro-2-methylpropan-2-yl)-benzamide]
22 | 410 nM | 80 °C | CC(C)(CO)NC(=O)c1cc(-c2ccc(F)cc2)cc(-n2nnnc2C2CC2)c1 [Example 71, 3-(5-Cyclopropyltetrazol-1-yl)-5-(4-fluorophenyl)-N-(1-hydroxy-2-methylpropan-2-yl)-benzamide]
23 | 350 nM | 90 °C | CC(C)(C)c1nnnn1-c1cc(C(=O)NC(C)(C)C2CC2)cc(-c2ccc(F)c(F)c2)c1 [Example 113, 3-(5-tert-Butyltetrazol-1-yl)-N-(2-cyclopropylpropan-2-yl)-5-(3,4-difluorophenyl)-benzamide]
24 | 270 nM | 92 °C | CC(C)c1nnnn1-c1cc(C(=O)NC(C)(C)C)cc(-c2ccc(C(F)(F)F)cc2)c1 [Example 47, N-tert-Butyl-3-(5-propan-2-yltetrazol-1-yl)-5-[4-(trifluoromethyl)-phenyl]-benzamide]
